Assay results reported in a melting point compilation (Tetko et al.; mined from patent text by program, amines drawn as free bases though some values may be those of a salt).

Row | Structure (SMILES) | melting point [°C]
1 | CC(=O)OCC1OC(OC2C(COC(C)=O)OC(Oc3ccc(N)cc3)C(OC(C)=O)C2OC(C)=O)C(OC(C)=O)C(OC(C)=O)C1OC(C)=O (stereo not given) | 174 to 176
2 | CCOCCOC(=O)C(=O)Nc1nc(-c2c(C)cc(C)cc2C)cs1 | 124 to 125
3 | CCC1(C)SC(=NOC(=O)NC)N=C1C (stereo not given) | 115 to 117
4 | CCC(Cl)C(=O)NC(C)=O (stereo not given) | 51 to 53
5 | CCOC(=O)CC(c1ccccc1)N(N)C(=O)c1cc(C(=O)OCc2ccccc2)ccc1OCCOC (racemic) | 139 to 140
6 | Nc1nc2ccc3ccc(CNc4ccc(F)cc4)cc3c2c(=O)[nH]1 | > 230
7 | Cc1cc2cccc(Br)c2nc1C | 78
8 | CCOC(=O)C1C(=O)C=C(c2ccc(OCC(=O)O)c(Cl)c2Cl)CC1c1ccccc1 (stereo not given) | 91
9 | CC1CC(=O)NN=C1c1ccc(NC(=O)c2ccco2)cc1 (stereo not given) | 213 to 216
10 | Cc1ccc(F)cc1C1CC(=O)c2c(C)cnnc2C1 (stereo not given) | 127 to 128
11 | CN1CC[C@@H](c2c(O)cc(O)c3c(=O)cc(-c4ccc(N)cc4Br)oc23)[C@@H]1CO | 208
12 | CN(C)CCOc1cc(CCCOc2nn(Cc3ccccc3)cc2CC(=O)O)n(Cc2ccc(Cl)cc2Cl)n1 | 78.3 to 80.8
13 | CCOC(=O)c1cn(C2CC2)c2c(F)c(F)c(F)c(N)c2c1=O | 223 to 225
14 | COc1ccc(CC(=O)CCCCCBr)cc1 | 41 to 43
15 | CCN(CC)c1ccc(/C=C(\C)c2ccc3c(c2)C(C)(C)CCC3(C)C)cc1 | 89 to 90
16 | CCc1cc(-c2ccc(Cl)cc2)nc2c(C(=O)O)cnn12 | 227
17 | O=C(c1ccc(CN2CC=CCC2)cc1)N1CCN2C(=O)OC(c3ccccc3)(c3ccccc3)C2C1 (stereo not given) | 189 to 191
18 | CCCCc1nnc(SCc2ccc(OC)cc2)n1Cc1ccc(O)cc1 | 130 to 131
19 | CCCc1c(OCCCCCC(=O)c2cc(O)c(O)cc2F)ccc(C(=O)O)c1O | 193 to 195
20 | Cc1cc2c(cc1Br)-c1cc(C)c(Br)c(C)c1OP2(=O)O | 240
21 | COC(=O)c1cccc(C2CCCS2)c1N (stereo not given) | 75 to 79
22 | C#CCOc1nsc(SC(F)F)c1C#N | 83 to 84
23 | COc1ccc2nc(-n3nc(CCCO)cc3-c3ccc(Cl)cc3)sc2c1 | 123 to 125
24 | CCCCC/C(=C\C=C\C(=O)NCCCCc1cccnc1)c1ccc(OC)cc1 | 81.5 to 82.5
25 | Nc1cc(F)ccc1C(=O)NCCN1CCC(n2c(=O)[nH]c3ccccc32)CC1 | 229
26 | CCOC(=O)CNC(=O)CCCCCNC(=O)c1ccc(S(C)(=O)=O)cc1 | 124 to 126

Second part, the molecule after the results:

Row | melting point [°C] | Structure (SMILES)
27 | 156 to 157 | O=C(NCCSc1cccc2nccn12)c1ccccc1O
28 | 115 to 116 | CC(c1ccc(-c2ccccc2)c(F)c1)c1cc(N(C)C(=S)NC(=O)c2ccccc2)on1 (stereo not given)
29 | 98 | COc1ccc(Nc2cc(Cl)ccc2[N+](=O)[O-])cc1
30 | 177 to 178 | COc1cc(C=C(C=O)C(C=O)=Cc2ccc(O)c(OC)c2)ccc1O
31 | 128 to 129 | Brc1ccccc1-n1cnc2cnc3ccc(-c4ccccc4)cc3c21
32 | 287 to 292 | O=c1[nH]ncc2[nH]c(-c3ccc(OC(F)F)c(OC4CC4)c3)cc12
33 | 211 to 214 | CC(C)(C)c1cc(NC(=O)C=Cc2ccccc2)cc(C(C)(C)C)c1O
34 | 146 to 148 | COC(=O)c1ccc(O)cc1NC(=O)c1ccc(C(C)(C)C)cc1
35 | 214 to 217 | Nc1nc2ccc(C(=C(Cl)Cl)c3ccccc3)cc2n1N1C=CC=CS1
36 | 48 to 50 | CC(C)=Cc1c(C)nc(C)c(CO)c1-c1ccccc1
37 | 189 to 190 | CC(C)(O)CNc1c([N+](=O)[O-])cnc2cc(Br)cnc12
38 | 96 | CCCCNC(=O)C(c1ccccc1)c1ccccc1
39 | 122 to 124 | CCOC(=O)Cc1ccc(C(=O)CN2CCN(c3ccncc3)CC2)cc1
40 | 61 to 67 | Clc1ccc2c(c1)C1(CO1)c1ccccc1C21CO1 (stereo not given)
